Measured values from patent US20220259249A1, “INHIBITORS OF ANTIBIOTIC RESISTANCE MEDIATED BY ARNT” (priority 2019, published 2022).
Like-named read-outs stand apart in the source and are kept apart here.

System: P. aeruginosa PA14 col^R 5 (colistin-resistant strain)
Assay: microbe, parasite or virus in culture
Assay type: cell-based
Details: for IC90: read-out: IC90, synergy with colistin (8 μg/ml), minimum concentration causing at least 90% growth inhibition
Procedure: The compounds identified by in silico screening were tested for their antibacterial activity (in the absence of colistin) and for their synergistic or adjuvant activity with colistin against a colistin-resistant strain of P. aeruginosa grown in the absence or presence of a sub-inhibitory concentration of colistin (8 μg/ml).
This strain over-expresses the am genes responsible for the modification of lipopolysaccharide by the addition of L-amino-arabinose.
The strain was grown in Mueller-Hinton (MH) medium for 8 hours, and inoculated at a cell density of ˜10^6/ml in MH medium supplemented or not with colistin at a concentration of 16 μg/ml. […] The microtitration plates were incubated at 37° C. without stirring for 24 hours. Bacterial growth was assessed by measuring absorbance at 600 nm (A600) in a microplate reader (Victor 2^V, Perkin-Elmer). […] For each compound three independent experiments were conducted, and the averages of the values obtained in the three experiments are considered to determine the values of IC50 e IC90.

[1] = Pseudomonas aeruginosa, PA14, 24 h, read-out: IC50 without colistin
[2] = read-out: IC50, synergy with colistin (8 μg/ml), PA14 ColR5, colistin 8 μg/ml (sub-inhibitory), minimum concentration causing at least 50% growth inhibition, 24 h
[3] = PA14 ColR5, colistin 8 μg/ml (sub-inhibitory), 24 h

In the case of `COC(=O)[C@]1(C)CCC[C@@]2(C)C3CC[C@@]4(C)C[C@]3(CCC21)CC4=O` (single isomer, unassigned; ent-16) [SR7, methyl ester of ent-16-oxo-beyeran-19-oic acid], the IC50 [1] is reported as over 250 µM, the IC50 [2] is reported as over 250 µM and the IC90 [3] is reported as over 250 µM.
With `O=C1c2c(O)cccc2[C@H]([C@@H]2O[C@H](CO)[C@@H](O)[C@H](O)[C@H]2O)c2cc(CO)cc(O)c21` [BBN36, (10S)-1,8-dihydroxy-3-(hydroxymethyl)-10-[(2S, 3R, 4R, 5S, 6R)-3,4,5-trihydroxy-6-(hydroxymethyl)oxan-2-yl]-10 H-anthracen-9-one] the IC50 [1] was over 250 µM, the IC50 [2] was over 250 µM and the IC90 [3] was over 250 µM.
`O=C(/C=C/c1ccc(O)c(O)c1)O[C@@H]1C[C@](O)(C(=O)O)C[C@@H](O)[C@H]1O` [BBN53, (1S, 3R, 4R, 5R)-3-[(E)-3-(3,4-dihydroxyphenyl)prop-2-enoyl]oxy-1,4,5-trihydroxycyclohexane-1-carboxylic acid] showed an IC50 [1] of over 250 µM, an IC50 [2] of over 250 µM and an IC90 [3] of over 250 µM.
With `O=C(CCc1ccc(O)cc1)c1c(O)cc(O)cc1O` [BBN101, 3-(4-hydroxyphenyl)-1-(2,4,6-trihydroxyphenyl)propan-1-one] the IC50 [1] was over 250 µM, the IC50 [2] was over 250 µM and the IC90 [3] was over 250 µM.
`COc1cc(O)c(O)c(CC=C(C)C)c1-c1coc2cc(O)cc(O)c2c1=O` [BBN118, 3-[3,4-dihydroxy-6-methoxy-2-(3-methylbut-2-enyl)phenyl]-5,7-dihydroxycromen-4-one] gave an IC50 [1] of over 250 µM and an IC90 [3] of over 250 µM.
Work on `CC1(C)C=Cc2c(cc(O)c3c(=O)c4cc5c(c(O)c4oc23)OC(C)(C)C=C5)O1` [BBN119, 11,22-dihydroxy-7,7,19,19-tetramethyl-2,8,20-trioxapentacyclo [12.8.0.03,120,04,90,016,21]docosa-1(14), 3(12), 4(9), 5, 10, 15, 17, 21-octaen-13-one] yielded an IC50 [1] of over 250 µM, an IC50 [2] of over 250 µM and an IC90 [3] of over 250 µM.
`C=CC(C)(C)c1c2c(c3oc4c(O)c(O)ccc4c(=O)c3c1O)C(C)(C)C(C)O2` (stereo not drawn) [BBN120, rheediaxanthone B] showed an IC50 [1] of over 250 µM and an IC90 [3] of over 250 µM.
In the case of `Cc1nccc2c1[nH]c1ccccc12` [BBN135, 1-methyl-9H-pyrido[3,4-b]indole], the IC50 [1] is reported as over 250 µM, the IC50 [2] is reported as over 250 µM and the IC90 [3] is reported as over 250 µM.
For `COC(=O)C1=CO[C@@H](O[C@@H]2O[C@H](CO)[C@@H](O)[C@H](O)[C@H]2O)[C@@H]2[C@@H](C)[C@@H](O)C[C@H]12` [BBN139, methyl (1S, 4aS, 6S, 7R, 7aS)-6-hydroxy-7-methyl-1-[(2 S, 3 R, 4 S, 5S, 6R)-3,4,5-trihydroxy-6-(hydroxymethyl)oxan-2-yl]oxy-1,4a, 5,6,7,7a-haxidrocrociclopenta [c] piran-4-carboxylate], the IC50 [1] was over 250 µM, the IC50 [2] was over 250 µM and the IC90 [3] was over 250 µM.
Work on `COc1cc2ccc(=O)oc2cc1OC/C=C(\C)CCC=C(C)C` [BBN146, 6-methoxy-7-O-geranyl-coumarin] yielded an IC50 [1] of over 250 µM, an IC50 [2] of over 250 µM and an IC90 [3] of over 250 µM.
Compound `CC(C)=CCc1c(O)cc2c(c1O)C(=O)[C@H](O)[C@@H](c1ccc(O)cc1)O2` [BBN147, 6-prenyl-aromadendrine] has an IC50 [1] of over 250 µM and an IC90 [3] of over 250 µM.
Compound `CC(C)=CCc1c(O)c(C(=O)c2ccccc2)c(O)c2c1OC(C)(C)C=C2` [BBN148, [5,7-dihydroxy-2,2-dimethyl-8-(3-methylbut-2-enyl)cromen-6-yl]-phenylmethanone] has an IC50 [1] of over 250 µM, an IC50 [2] of over 250 µM and an IC90 [3] of over 250 µM.
Work on `O=C(O)c1cc(O)c2c(c1)C(=O)c1cccc(O)c1C2=O` [BBN152, 4,5-dihydroxy-9,10-dioxoanthracene-2-carboxylic acid] yielded an IC50 [1] of over 250 µM, an IC50 [2] of over 250 µM and an IC90 [3] of over 250 µM.
In the case of `CC(C)=CCC/C(C)=C/COc1ccc(C(=O)/C=C/c2ccccc2)cc1` [BBN154, 4′-O-geranil-calcone], the IC50 [1] is reported as over 250 µM, the IC50 [2] is reported as over 250 µM and the IC90 [3] is reported as over 250 µM.
